Measured values published in patent US20220354949A1, “NOVEL COMPOUNDS” (XENIOPRO GmbH, priority 2018, published 2022).

Tests used:
Format in all cases: cell-based
[1] = test system: HH cells (human cutaneous T-cell lymphoma cells); assay: Proliferation assay (alamarBlue) with HH cells
Excerpt: (§1) The antiproliferative activities of compounds falling under formula (Ia), (Ib) and (Ic), respectively, were investigated on cells or cell lines originating from a disorder of the haematopoietic system, including the myeloid cell compartment and the lymphoid cell compartment (T-cells and B-cells), the neuroendocrine system, the cervix, the breast, the ovaries, the lung, the gastrointestinal tract, and the mucosal epithelium, as well as from the skin epithelium and from the muscle. To this end, HL-60 cells, NB-4 cells, HH cells, RPMI-8402 cells, TANOUE cells, TT cells, HeLa cells, MDA-MB-231 cells, FU-OV-1 cells, LOU-NH91 cells, 23132/87 cells, CAL-27 cells, BHY cells, SCC-25 cells, A-431 cells, human primary epidermal keratinocytes (HPEK), and C2C12 cells were seeded into 96-well plates suitable for fluorescence assays (CORNING #3598) at following initial cell numbers: 1000 cells per well for HL-60; 1000 cells per well for NB-4; 5000 cells per well for HH; 5000 cells per well for RPMI-8402; 1500 cells per well for TANOUE; 9000 cells per well for TT; 2000 cells per well for HeLa; 3000 cells per well for MDA-MB-231; 3000 cells per well for FU-OV-1; 4000 cells per well for LOU-NH91; 2000 cells per well for 23132/87; 2000 cells per well for CAL-27; 1500 cells per well for BHY; 1500 cells per well for SCC-25; 700 cells per well for A-431; 1000 cells per well for HPEK; 500 cells per well for C2C12. The cells were treated with compounds at indicated final concentrations (diluted from the 1000× stock-solutions in DMSO to a final DMSO concentration of 0.1% v/v in H2O (Water For Injection, WFI, Fisherscientific #10378939)) or with the empty carrier DMSO at 0.1% v/v as control for 5 days. At day 5 after starting the treatments the cells were subjected to the alamarBlue® Proliferation Assay (Bio-Rad Serotec GmbH, BUF012B) according to the protocol of the manufacturer. The readout was taken with a multi-well plate-reader in the fluorescence mode with applying a filter for excitation at 560 nm (band width 10 nm) and for emission at 590 nm (band width 10 nm). Control treatments for growth inhibition with commercial compounds such as Methotrexate (MTREX) and Resveratrol (RES) were included on every plate. Some of the test compounds of the present invention were obtained and applied as their salts. According cases are indicated in the column “Specification” in Table 55 to Table 92 and by their sum formula in Table 93.
(§2) The assays were performed in duplicate or more replicates of independent single experiments each containing a six-fold replicate for every condition. For every individual plate, the measured fluorescence intensity values of the conditions with compound treatment were normalized against the corresponding equally weighted arithmetic mean of the fluorescence intensity values of the six DMSO treated control wells in order to obtain the relative values to a baseline level of 1.0.
(§3) Two independent outlier analyses were performed according to the methods by Peirce and Chauvenet (Ross, Journal of Engineering Technology 2003, 1-12). Outliers confirmed by at least one of the methods were excluded from the calculations but not more than one value out of six per compound within a single experiment. The weighted arithmetic mean (here abbreviated as AVEw) for each compound was calculated from the normalized values over all independent replicates of the single experiments comprising the six replicates each. The corresponding standard deviation for the weighted arithmetic mean was calculated according to the method described by Bronstein et al. (Bronstein, Semendjajew, Musiol, Müihlig, Taschenbuch der Mathematik, 5th edition 2001 (German), publisher: Verlag Harri Deutsch, Frankfurt am Main and Thun) and was combined with the Gauß' error propagation associated with the performed calculation for the normalization. The resulting standard deviation is herein referred to as “combined standard deviation”. […]

[2] = test system: A-431 cells (human epidermoid squamous cell carcinoma cells); assay: Proliferation assay (alamarBlue) with A-431 cells; conditions: for Activity Range (weighted arithmetic mean AVEw of normalized fluorescence intensity, relative to DMSO basis level 1.0): 20 μM; for Activity Range (weighted arithmetic mean of normalized fluorescence intensity, relative to DMSO basis level 1.0): control at 40 μM
Excerpt: as §1, §2, §3

[3] = test system: human epidermal keratinocyte progenitors (HPEKp, pooled); assay: Proliferation assay (alamarBlue) with HPEKp cells
Excerpt: The antiproliferative activities of compounds falling under formula (Ia), (Ib) and (Ic), respectively, were investigated on cells or cell lines originating from a disorder of the haematopoietic system, including the myeloid cell compartment and the lymphoid cell compartment (T-cells and B-cells), the neuroendocrine system, the cervix, the breast, the ovaries, the lung, the gastrointestinal tract, and the mucosal epithelium, as well as from the skin epithelium and from the muscle. To this end, HL-60 cells, NB-4 cells, HH cells, RPMI-8402 cells, TANOUE cells, TT cells, HeLa cells, MDA-MB-231 cells, FU-OV-1 cells, LOU-NH91 cells, 23132/87 cells, CAL-27 cells, BHY cells, SCC-25 cells, A-431 cells, human primary epidermal keratinocytes (HPEK), and C2C12 cells were seeded into 96-well plates suitable for fluorescence assays (CORNING #3598) at following initial cell numbers: 1000 cells per well for HL-60; 1000 cells per well for NB-4; 5000 cells per well for HH; 5000 cells per well for RPMI-8402; 1500 cells per well for TANOUE; 9000 cells per well for TT; 2000 cells per well for HeLa; 3000 cells per well for MDA-MB-231; 3000 cells per well for FU-OV-1; 4000 cells per well for LOU-NH91; 2000 cells per well for 23132/87; 2000 cells per well for CAL-27; 1500 cells per well for BHY; 1500 cells per well for SCC-25; 700 cells per well for A-431; 1000 cells per well for HPEK; 500 cells per well for C2C12. […] The readout was taken with a multi-well plate-reader in the fluorescence mode with applying a filter for excitation at 560 nm (band width 10 nm) and for emission at 590 nm (band width 10 nm). […]
as §2, with “1.0. […]” for “1.0.”

[4] = test system: NB-4 cells (human acute promyelocytic leukemia cells); assay: Proliferation assay (alamarBlue) with NB-4 cells
Excerpt: as §1, §2, §3

[5] = test system: HeLa cells (human cervical adenocarcinoma cells); assay: Proliferation assay (alamarBlue) with HeLa cells
Excerpt: as §1, §2, §3

[6] = test system: MDA-MB-231 cells (human breast carcinoma cells); assay: Proliferation assay (alamarBlue) with MDA-MB-231 cells; conditions: compound at 20 μM
Excerpt: as §1, §2, §3

[7] = test system: RPMI-8402 cells (human T cell acute lymphoblastic leukemia cells); assay: Proliferation assay (alamarBlue) with RPMI-8402 cells
Excerpt: as §1, §2, §3

Question: With `Oc1ccc(C=Cc2cc(O)cc(O)c2)cc1` [RES, Resveratrol] as the compound, how does the “Activity Range: weighted arithmetic mean (AVEw) of normalized fluorescence intensity, proliferation assay with HH cells” value ([1]; 20 μM, relative to DMSO basis level 1.0, Table 59 (novel compounds)) read?
Answer: 0.6 ± 0.1

Question: What about the “Activity Range: weighted arithmetic mean (AVEw) of normalized fluorescence intensity, proliferation assay with HH cells” value ([1]; control at 40 μM, relative to DMSO basis level 1.0, Table 59) of the same compound?
Answer: 0.4 ± 0.1

Question: And the “Activity Range: weighted arithmetic mean (AVEw) of normalized fluorescence intensity, proliferation assay with HH cells” value ([1]; control at 40 μM, relative to DMSO basis level 1.0, Table 60)?
Answer: 0.4 ± 0.1

Question: What about the “Activity Range (weighted arithmetic mean AVEw of normalized fluorescence intensity, relative to DMSO basis level 1.0)” value ([2]; Table 84 (novel compounds)) of the same compound?
Answer: 0.6 ± 0.0

Question: And the “Activity Range (weighted arithmetic mean AVEw of normalized fluorescence intensity, relative to DMSO basis level 1.0)” value ([2]; Table 85 (compounds disclosed in PCT/EP2018/054686))?
Answer: 0.6 ± 0.0

Question: What about the “Activity Range (weighted arithmetic mean of normalized fluorescence intensity, relative to DMSO basis level 1.0)” value ([2]; Table 84) of the same compound?
Answer: 0.2 ± 0.0

Question: What about the “Activity Range (weighted arithmetic mean of normalized fluorescence intensity, relative to DMSO basis level 1.0)” value ([2]; Table 85) of the same compound?
Answer: 0.2 ± 0.0

Question: What about the “Activity Range: weighted arithmetic mean (AVEw) of normalized fluorescence intensity, relative to DMSO basis level of 1.0” value ([3]; control at 20 μM) of the same compound?
Answer: 0.2 ± 0.0

Question: And the “Activity Range: weighted arithmetic mean (AVEw) of normalized fluorescence intensity, relative to DMSO basis level of 1.0” value ([3]; control at 40 μM)?
Answer: 0.2 ± 0.0

Question: What about the “Activity Range: weighted arithmetic mean (AVEw) of normalized fluorescence intensity, proliferation assay with NB-4 cells” value ([4]; 20 μM, relative to DMSO basis level 1.0, Table 57 (novel compounds)) of the same compound?
Answer: 0.1 ± 0.0

Question: What about the “Activity Range: weighted arithmetic mean (AVEw) of normalized fluorescence intensity, proliferation assay with NB-4 cells” value ([4]; 20 μM, relative to DMSO basis level 1.0, Table 58 (compounds disclosed in PCT/EP2018/054686)) of the same compound?
Answer: 0.1 ± 0.0

Question: What about the “Activity Range: weighted arithmetic mean (AVEw) of normalized fluorescence intensity, proliferation assay with NB-4 cells” value ([4]; control at 40 μM, relative to DMSO basis level 1.0, Table 57) of the same compound?
Answer: 0.0 ± 0.0

Question: And the “Activity Range: weighted arithmetic mean (AVEw) of normalized fluorescence intensity, proliferation assay with NB-4 cells” value ([4]; control at 40 μM, relative to DMSO basis level 1.0, Table 58)?
Answer: 0.0 ± 0.0

Question: What about the “Activity Range: weighted arithmetic mean (AVEw) of normalized fluorescence intensity relative to DMSO basis level 1.0” value ([5]; compound at 20 μM, Table 67 (novel compounds)) of the same compound?
Answer: 0.9 ± 0.0

Question: And the “Activity Range: weighted arithmetic mean (AVEw) of normalized fluorescence intensity relative to DMSO basis level 1.0” value ([5]; compound at 20 μM, Table 68 (compounds of PCT/EP2018/054686))?
Answer: 0.9 ± 0.0

Question: And the “Activity Range: weighted arithmetic mean (AVEw) of normalized fluorescence intensity relative to DMSO basis level 1.0” value ([5]; control at 40 μM, Table 67)?
Answer: 0.4 ± 0.1

Question: And the “Activity Range: weighted arithmetic mean (AVEw) of normalized fluorescence intensity relative to DMSO basis level 1.0” value ([5]; control at 40 μM, Table 68)?
Answer: 0.4 ± 0.1

Question: And the activity at 20 µM ([6]; Homo sapiens, Table 69 (novel compounds), read-out: Activity Range: weighted arithmetic mean (AVEw) of normalized fluorescence intensity relative to DMSO basis level 1.0)?
Answer: 60%

Question: What about the “Activity Range: weighted arithmetic mean (AVEw) of normalized fluorescence intensity relative to DMSO basis level 1.0” value ([6]; Table 70 (compounds of PCT/EP2018/054686)) of the same compound?
Answer: 0.6 ± 0.0

Question: What about the “Activity Range: weighted arithmetic mean (AVEw) of normalized fluorescence intensity, proliferation assay with RPMI-8402 cells” value ([7]; 20 μM, relative to DMSO basis level 1.0, Table 61 (novel compounds)) of the same compound?
Answer: 0.6 ± 0.0

Question: What about the “Activity Range: weighted arithmetic mean (AVEw) of normalized fluorescence intensity, proliferation assay with RPMI-8402 cells” value ([7]; 20 μM, relative to DMSO basis level 1.0, Table 62 (compounds disclosed in PCT/EP2018/054686)) of the same compound?
Answer: 0.6 ± 0.0

Question: What about the “Activity Range: weighted arithmetic mean (AVEw) of normalized fluorescence intensity, proliferation assay with RPMI-8402 cells” value ([7]; control at 40 μM, relative to DMSO basis level 1.0, Table 61) of the same compound?
Answer: 0.1 ± 0.0
